In patent US20110217713A1 (On-Q-ity, priority 2010, published 2011):

Test system: non-small cell lung cancer patient specimens (adenocarcinomas and squamous cell carcinoma)
Assay: International Adjuvant Lung Trial (IALT): cisplatin-based therapy vs observation, DFS/OS against IHC DNA repair biomarker Q-scores (Cox PH models)
Assay type: in vivo, human
Protocol: An immunohistochemical evaluation of DNA Repair Proteins was conducted on a large international patient specimen collection from the IALT trial (International Adjuvant Lung Trial). This clinical trial originally comprised approximately 1867 non-small cell lung cancer patient specimens (adenocarcinomas and squamous cell carcinoma) and was designed to test clinical parameters for patients receiving either cisplatin-based therapy or those considered observation. One problem with testing of biomarkers in general from clinical trials is that the patient population treatments are generally a mixture of several different treatments and combinations of such and so results may be confounded by interactions of various treatments. However, the IALT trial represents pristine treatment arms of cisplatin and observation and thus is relatively free of confounding affects due to treatment variation.
International Adjuvant Lung Cancer Trial (IALT) NSCLC FFPE patient specimens constructed on TMAs (13 total) were stained by IHC for DNA repair biomarkers: ATM, MSH2, ERCC1, p53, pMK2, PARP1, BRCA1, XPF. An average of 603 patients were analyzed for each biomarker. Tumor biomarker nuclear or cytoplasmic levels were determined using digital image user defined macros. Scores were generated based on weighted intensity and quantity of stained cells. In reference to accompanying diagrams in the Powerpoint files, please note that a wide dynamic range achieved during assay development and optimization in commercially available TMAs is translationally achieved when patients comprising this study population are stained, annotated for tumor region and scored by user-defined macros.
Previous studies have utilized standard pathologist-based scoring, thus we chose to optimize the IHC-based assessment of biomarker levels using digital pathology and weighted scoring. This endeavor is undertaken so that for a given population a continuum of scores (herein referred to as Q-scores) with a broad dynamic range may be generated by user defined macros. Here, scoring of individual tumor cells comprising each patient specimen is generated and then patients assembled into a population continuum of scores against which finer cut-points may tested and established rather than crude binning methods as employed in previous studies.
Q-score=10*(% of 10+cells)+9*(% of 9+cells)+8*(% of 8+cells)+7*(% of 7+cells) . . . 1*(% of 1+cells)
Cox PH models adjusted for relevant clinical and stratification variables were used in the univariate analyses of Disease-Free Survival (DFS) and Overall Survival (OS). Initial analyses were conducted using biomarker Q scores as continuous variables against clinical endpoint metrics.

[1] = ERCC1 model, ADENOCARCINOMA, Without variables
[2] = ERCC1 model, SQUAMOUS CELLS, With adjustment variables
[3] = ERCC1 model, SQUAMOUS CELLS, With selected variables
[4] = ERCC1 model, SQUAMOUS CELLS, Without variables
[5] = Mean Q score PMK2 nuclear (PMK2MN), Adenocarcinoma, with adjustment variables
[6] = Mean Q score PMK2 nuclear (PMK2MN), Adenocarcinoma, with selected variables
[7] = Mean Q score PMK2 nuclear (PMK2MN), Adenocarcinoma, without variables
[8] = Mean Q score PMK2 nuclear (PMK2MN), Squamous Cells, with adjustment variables
[9] = Mean Q score PMK2 nuclear (PMK2MN), Squamous Cells, with selected variables
[10] = Mean Q score PMK2 nuclear (PMK2MN), Squamous Cells, without variables
[11] = Mean Q score of PMK2 cytoplasm divided by nuclear (PMK2MCNp), Adenocarcinoma, with adjustment variables
[12] = Mean Q score of PMK2 cytoplasm divided by nuclear (PMK2MCNp), Adenocarcinoma, with selected variables
[13] = Mean Q score of PMK2 cytoplasm divided by nuclear (PMK2MCNp), Adenocarcinoma, without variables
[14] = Mean Q score sum of PMK2 cytoplasm & nuclear (PMK2MCNs), Adenocarcinoma, with adjustment variables
[15] = Mean Q score sum of PMK2 cytoplasm & nuclear (PMK2MCNs), Adenocarcinoma, with selected variables
[16] = Mean Q score sum of PMK2 cytoplasm & nuclear (PMK2MCNs), Adenocarcinoma, without variables
[17] = Mean Q score sum of PMK2 cytoplasm & nuclear (PMK2MCNs), Squamous Cells, with adjustment variables
[18] = Mean Q score sum of PMK2 cytoplasm & nuclear (PMK2MCNs), Squamous Cells, with selected variables
[19] = Mean Q score sum of PMK2 cytoplasm & nuclear (PMK2MCNs), Squamous Cells, without variables
[20] = Overall Survival, MEAN Q SCORE PMK2 CYTOPLASM, Adenocarcinoma, With adjustment variables
[21] = Overall Survival, MEAN Q SCORE PMK2 CYTOPLASM, Adenocarcinoma, With selected variables
[22] = Overall Survival, MEAN Q SCORE PMK2 CYTOPLASM, Adenocarcinoma, Without variables
[23] = Overall Survival, MEAN Q SCORE PMK2 CYTOPLASM, Squamous Cells, With selected variables
[24] = Overall Survival, MEAN Q SCORE PMK2 CYTOPLASM, Squamous Cells, Without variables
[25] = PARP1 model, SQUAMOUS CELLS, With adjustment variables
[26] = PARP1 model, SQUAMOUS CELLS, With selected variables
[27] = PARP1 model, SQUAMOUS CELLS, Without variables
[28] = XPF model, ADENOCARCINOMA, With adjustment variables
[29] = XPF model, ADENOCARCINOMA, With selected variables
[30] = XPF model, ADENOCARCINOMA, Without variables
[31] = XPF model, SQUAMOUS CELLS, With adjustment variables
[32] = XPF model, SQUAMOUS CELLS, With selected variables
[33] = XPF model, SQUAMOUS CELLS, Without variables

N.N.[Cl][Pt][Cl] [cisplatin]
HazardRatio, Treatment (ERCC1 model, ADENOCARCINOMA, With selected variables): 0.765
HazardRatio, ERCC1_Treatment [1]: 1.024
HazardRatio, Treatment [1]: 1.040
HazardRatio, ERCC1_Treatment [2]: 1.070
HazardRatio, Treatment [2]: 0.731
HazardRatio, ERCC1_Treatment [3]: 1.052
HazardRatio, Treatment [3]: 0.781
HazardRatio, ERCC1_Treatment [4]: 1.054
HazardRatio, Treatment [4]: 0.773
HazardRatio, PMK2MN_Treatment interaction (Disease Free Survival) [5]: 1.077
HazardRatio, Treatment (Disease Free Survival) [5]: 0.811
HazardRatio, PMK2MN_Treatment interaction (Disease Free Survival) [6]: 1.084
HazardRatio, Treatment (Disease Free Survival) [6]: 0.802
HazardRatio, PMK2MN_Treatment interaction (Disease Free Survival) [7]: 0.956
HazardRatio, Treatment (Disease Free Survival) [7]: 1.146
HazardRatio, PMK2MN_Treatment interaction (Disease Free Survival) [8]: 1.145
HazardRatio, Treatment (Disease Free Survival) [8]: 0.737
HazardRatio, PMK2MN_Treatment interaction (Disease Free Survival) [9]: 1.145
HazardRatio, Treatment (Disease Free Survival) [9]: 0.750
HazardRatio, PMK2MN_Treatment interaction (Disease Free Survival) [10]: 1.111
HazardRatio, Treatment (Disease Free Survival) [10]: 0.780
HazardRatio, PMK2MCNp_Treatment interaction (Disease Free Survival) [11]: 0.000
HazardRatio, Treatment (Disease Free Survival) [11]: 0.954
HazardRatio, PMK2MCNp_Treatment interaction (Disease Free Survival) [12]: 0.000
HazardRatio, Treatment (Disease Free Survival) [12]: 0.992
HazardRatio, PMK2MCNp_Treatment interaction (Disease Free Survival) [13]: 0.000
HazardRatio, Treatment (Disease Free Survival) [13]: 1.177
HazardRatio, Treatment (Disease Free Survival) (Mean Q score of PMK2 cytoplasm divided by nuclear (PMK2MCNp), Squamous Cells, with adjustment variables): 0.612
HazardRatio, Treatment (Disease Free Survival) (Mean Q score of PMK2 cytoplasm divided by nuclear (PMK2MCNp), Squamous Cells, with selected variables): 0.645
HazardRatio, Treatment (Disease Free Survival) (Mean Q score of PMK2 cytoplasm divided by nuclear (PMK2MCNp), Squamous Cells, without variables): 0.726
HazardRatio, PMK2MCNs_Treatment interaction (Disease Free Survival) [14]: 1.041
HazardRatio, Treatment (Disease Free Survival) [14]: 0.832
HazardRatio, PMK2MCNs_Treatment interaction (Disease Free Survival) [15]: 1.044
HazardRatio, Treatment (Disease Free Survival) [15]: 0.828
HazardRatio, PMK2MCNs_Treatment interaction (Disease Free Survival) [16]: 0.939
HazardRatio, Treatment (Disease Free Survival) [16]: 1.203
HazardRatio, PMK2MCNs_Treatment interaction (Disease Free Survival) [17]: 1.091
HazardRatio, Treatment (Disease Free Survival) [17]: 0.751
HazardRatio, PMK2MCNs_Treatment interaction (Disease Free Survival) [18]: 1.090
HazardRatio, Treatment (Disease Free Survival) [18]: 0.766
HazardRatio, PMK2MCNs_Treatment interaction (Disease Free Survival) [19]: 1.066
HazardRatio, Treatment (Disease Free Survival) [19]: 0.798
HazardRatio, PMK2MC_Treatrnent [20]: 1.001
HazardRatio, Treatment [20]: 0.883
HazardRatio, PMK2MC_Treatment [21]: 0.972
HazardRatio, Treatment [21]: 0.891
HazardRatio, PMK2MC_Treatment [22]: 0.639
HazardRatio, Treatment [22]: 1.264
HazardRatio, PMK2MC_Treatment [23]: 1.240
HazardRatio, Treatment [23]: 0.803
HazardRatio, PMK2MC_Treatment [24]: 1.147
HazardRatio, Treatment [24]: 0.835
HazardRatio, PARP1_Treatment [25]: 1.082
HazardRatio, Treatment [25]: 0.621
HazardRatio, PARP1_Treatment [26]: 1.062
HazardRatio, Treatment [26]: 0.687
HazardRatio, PARP1_Treatment [27]: 1.107
HazardRatio, Treatment [27]: 0.572
predictive HR, p53 (SCC, univariate Cox PH, biomarker Q score, DFS primary endpoint, OS secondary, p=0.005, 95% CI 1.035-1.212): 1.120
predictive HR, ATM (SCC, univariate Cox PH, biomarker Q score, DFS primary endpoint, OS secondary, p=0.010, 95% CI 1.046-1.405): 1.212
predictive HR, MSH2 (SCC, univariate Cox PH, biomarker Q score, DFS primary endpoint, OS secondary, p=0.012, 95% CI 1.044-1.42): 1.218
HazardRatio, Treatment [28]: 0.628
HazardRatio, XPF_Treatment [28]: 1.179
HazardRatio, Treatment [29]: 0.689
HazardRatio, XPF_Treatment [29]: 1.166
HazardRatio, Treatment [30]: 0.900
HazardRatio, XPF_Treatment [30]: 1.080
HazardRatio, Treatment [31]: 0.813
HazardRatio, XPF_Treatment [31]: 1.030
HazardRatio, Treatment [32]: 0.820
HazardRatio, XPF_Treatment [32]: 1.035
HazardRatio, Treatment [33]: 0.759
HazardRatio, XPF_Treatment [33]: 1.063
